How the values were obtained:
Format in all cases: biochemical
[1] = biological target: T1, cathepsin B (Homo sapiens, UniProt P07858); test: Cathepsin B enzyme inhibition in vitro (kinetic fluorescence assay); conditions: cathepsin B isolated from human liver vs calpain I
T1 construct: cathepsin B—isolated from human liver (Calbiochem #219362); purchased Calbiochem 219362; host or cells: human liver (tissue-derived)
Outline: (§1)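 Cathepsin B (0.25 nM, human liver) with 100 μM Z-Phe-Arg-AMC; L (1 nM, human liver) with 2 μM Z-Phe-Arg-AMC; S (0.5 nM, recombinant) with 20 μM Z-Val-Val-Arg-AMC. pH 6.0 MES buffer, 2.5 mM L-cysteine, room temperature. Kinetic fluorescence (ex 390/em 460 nm); apparent Ki from IC50 by Cheng-Prusoff.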

[2] = biological target: T2, cathepsin K (Homo sapiens, UniProt P43235); test: Cathepsin K enzyme inhibition in vitro (kinetic fluorescence assay); conditions: cathepsin K activated from recombinant human procathepsin K vs calpain I
T2 construct: purchased Calbiochem 342001; host or cells: E. coli
T2 sequence (P43235 115-329): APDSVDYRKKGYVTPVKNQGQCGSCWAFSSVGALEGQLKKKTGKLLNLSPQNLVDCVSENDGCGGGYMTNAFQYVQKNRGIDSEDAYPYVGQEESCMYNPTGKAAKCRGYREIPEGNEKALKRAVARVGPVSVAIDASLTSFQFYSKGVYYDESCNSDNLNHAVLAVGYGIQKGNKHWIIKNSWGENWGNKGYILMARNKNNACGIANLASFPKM

[3] = biological target: T3, cathepsin L (Homo sapiens, UniProt P07711); test: Cathepsin L enzyme inhibition in vitro (kinetic fluorescence assay); conditions: cathepsin L isolated from human liver vs calpain I
T3 construct: cathepsin L—isolated from human liver (Calbiochem #219402); purchased Calbiochem 219402; host or cells: human liver (tissue-derived)
Outline: as §1

[4] = biological target: T4, cathepsin S (Homo sapiens, UniProt P25774); test: Cathepsin S enzyme inhibition in vitro (kinetic fluorescence assay); conditions: recombinant human cathepsin S vs calpain I
T4 construct: purchased Calbiochem 219343; host or cells: E. coli
Outline: as §1

T3 sequence (P07711 114-333): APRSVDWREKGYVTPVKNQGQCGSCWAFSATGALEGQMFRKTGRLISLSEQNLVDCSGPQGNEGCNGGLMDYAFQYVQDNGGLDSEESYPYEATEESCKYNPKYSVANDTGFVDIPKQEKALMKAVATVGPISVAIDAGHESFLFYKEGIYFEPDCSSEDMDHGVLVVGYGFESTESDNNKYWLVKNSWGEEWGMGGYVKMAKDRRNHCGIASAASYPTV
T4 sequence (P25774 115-331): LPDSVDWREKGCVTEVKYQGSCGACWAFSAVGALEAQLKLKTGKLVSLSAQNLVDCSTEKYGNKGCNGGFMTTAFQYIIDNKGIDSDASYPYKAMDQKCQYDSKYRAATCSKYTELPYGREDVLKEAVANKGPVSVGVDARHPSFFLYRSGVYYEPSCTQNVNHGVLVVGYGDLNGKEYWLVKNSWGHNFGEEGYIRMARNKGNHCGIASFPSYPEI

Structure (SMILES)	Sel cat. B: Ki(cathepsin B)/Ki(calpain) ratio [1]	Sel cat. K: Ki(cathepsin K)/Ki(calpain) ratio [2]	Sel cat. L: Ki(cathepsin L)/Ki(calpain) ratio [3]	Sel cat. S: Ki(cathepsin S)/Ki(calpain) ratio [4]
NC(=O)C(=O)C(Cc1ccccc1)NC(=O)c1cccnc1-n1ccc(-c2ccccc2)n1 (stereo not drawn) [Example 5, N-(3-Amino-1-benzyl-2,3-dioxopropyl)-2-(3-phenyl-1H-pyrazol-1-yl)nicotinamide]	+ (+ means 10≦Ki(cathepsin B)/Ki(calpain)<30)	+ (+ means 10≦Ki(cathepsin K)/Ki(calpain)<30)	++ (++ means a Ki(cathepsin L)/Ki(calpain) ratio of ≧50)	++ (++ means a Ki(cathepsin S)/Ki(calpain) ratio of ≧100)
NC(=O)C(=O)C(Cc1ccc(OC(F)(F)F)cc1)NC(=O)c1cccnc1-n1ccc(-c2ccc(F)cc2)n1 (stereo not drawn) [Example 132, N-[3-Amino-2,3-dioxo-1-({4-[(trifluoromethyl)oxy]phenyl}methyl)propyl]-2-[3-(4-fluorophenyl)-1H-pyrazol-1-yl]pyridine-3-carboxamide]	+ (+ means 10≦Ki(cathepsin B)/Ki(calpain)<30)	++ (++ means a Ki(cathepsin K)/Ki(calpain) ratio of ≧30)	++ (++ means a Ki(cathepsin L)/Ki(calpain) ratio of ≧50)	++ (++ means a Ki(cathepsin S)/Ki(calpain) ratio of ≧100)
NC(=O)C(=O)C(Cc1ccccc1)NC(=O)c1cccnc1-n1ccc(-c2cccc3c2OCC3)n1 (stereo not drawn) [Example 164, N-[3-Amino-2,3-dioxo-1-(phenylmethyl)propyl]-2-[3-(2,3-dihydro-1-benzofuran-7-yl)-1H-pyrazol-1-yl]pyridine-3-carboxamide]	+ (+ means 10≦Ki(cathepsin B)/Ki(calpain)<30)	++ (++ means a Ki(cathepsin K)/Ki(calpain) ratio of ≧30)	++ (++ means a Ki(cathepsin L)/Ki(calpain) ratio of ≧50)	++ (++ means a Ki(cathepsin S)/Ki(calpain) ratio of ≧100)
NC(=O)C(=O)C(Cc1ccccc1)NC(=O)c1cccnc1-n1ccc(-c2cccc3cccnc23)n1 (stereo not drawn) [Example 160, N-[3-amino-2,3-dioxo-1-(phenylmethyl)propyl]-2-(3-quinolin-8-yl-1H-pyrazol-1-yl)pyridine-3-carboxamide]	++ (++ means a Ki(cathepsin B)/Ki(calpain) ratio of ≧30)	++ (++ means a Ki(cathepsin K)/Ki(calpain) ratio of ≧30)	++ (++ means a Ki(cathepsin L)/Ki(calpain) ratio of ≧50)	++ (++ means a Ki(cathepsin S)/Ki(calpain) ratio of ≧100)
NC(=O)C(=O)C(Cc1ccccc1)NC(=O)c1cccnc1-n1ccc(-c2ccccc2OC(F)F)n1 (stereo not drawn) [Example 166, N-[3-Amino-2,3-dioxo-1-(phenylmethyl)propyl]-2-(3-{2-[(difluoromethyl)oxy]phenyl}-1H-pyrazol-1-yl)pyridine-3-carboxamide]	+ (+ means 10≦Ki(cathepsin B)/Ki(calpain)<30)	++ (++ means a Ki(cathepsin K)/Ki(calpain) ratio of ≧30)	++ (++ means a Ki(cathepsin L)/Ki(calpain) ratio of ≧50)	++ (++ means a Ki(cathepsin S)/Ki(calpain) ratio of ≧100)
NC(=O)C(=O)C(Cc1ccc(F)cc1)NC(=O)c1cccnc1-n1ccc(-c2ccc(Cl)cc2Cl)n1 (stereo not drawn) [Example 114, N-{-3-Amino-1-[(4-fluorophenyl)methyl]-2,3-dioxopropyl}-2-[3-(2,4-dichlorophenyl)-1H-pyrazol-1-yl]pyridine-3-carboxamide]	++ (++ means a Ki(cathepsin B)/Ki(calpain) ratio of ≧30)	++ (++ means a Ki(cathepsin K)/Ki(calpain) ratio of ≧30)	++ (++ means a Ki(cathepsin L)/Ki(calpain) ratio of ≧50)	++ (++ means a Ki(cathepsin S)/Ki(calpain) ratio of ≧100)

— US7799809B2, “Carboxamide compounds and their use as calpain inhibitors” (Abbott GmbH & Co. KG, priority 2006, dated 2010)
